Test results as given in ChEMBL document CHEMBL1201862, “PubChem BioAssay data set” (2004).
The source made the active and inactive calls.

What was measured:
[1] = NIH-3T3 fibroblast cytotoxicity, dose response, cytotoxicity control, cell-based, fluorescence, Alamar Blue, secondary assay (AID 2327); type: functional;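 further: NIH-3T3 mouse fibroblasts cultured with fluconazole at 8 µg/mL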
[2] = tested on: Streptococcus sp. 'group A'; assay: growth inhibition of control SK(-) GAS strain, dose response, counter-screen for streptokinase expression inhibitor project, luminescence, kanamycin, BacTiterGlo, confirmation (AID 1900); type: functional, organism-based
[3] = inhibitors of intracellular T. cruzi replication, confirmation, NIH3T3 host cells, beta-gal luminescence (AID 2044); type: functional, cell-based;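 further: intracellular parasites grown in NIH/3T3 mouse fibroblasts as host cells; luminescent beta-galactosidase reporter signal from transgenic T. cruzi replicating inside host cells; inhibitors lower the luminescence signal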
[4] = growth suppression of PTEN-null colon cells, dose response, cell-based, HCT116 PTEN knockout (AID 1047); type: functional;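 further: HCT116 colon tumor cells with PTEN knocked out; cells exposed to compound for 60 hours before readout; potency for loss of cell viability measured by luminescence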
[5] = growth suppression of beta-catenin-knockout colon cells, dose response, cell-based, HCT116, human colon tumor (AID 1045); type: functional;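 further: HCT116 colon tumor cells with beta catenin knocked out; cells exposed to compound for 60 hours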
Streptococcus = assay: Group A Streptococcus viability loss, dose response, counter-screen for streptokinase expression inhibitor project, luminescence, BacTiterGlo (AID 1915); type: functional, organism-based;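 further: potency for reduction of bacterial viability or growth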
Beta-galactosidase = Beta-galactosidase (Escherichia coli, UniProt Q8VNN2); assay: beta-galactosidase enzyme inhibitors and activators, dose response, artefact control for CCR6 antagonist project, biochemical, E. coli enzyme, set 3 (AID 504712); type: functional
cells = type: functional
[6] = biological target: T1, Replicative DNA helicase DnaB (Mycobacterium tuberculosis, UniProt P9WMR3); assay: DnaB intein splicing inhibitors, dose response, biochemical, cell-free fluorescence (AID 449749); type: functional
T1 sequence (P9WMR3 whole entry): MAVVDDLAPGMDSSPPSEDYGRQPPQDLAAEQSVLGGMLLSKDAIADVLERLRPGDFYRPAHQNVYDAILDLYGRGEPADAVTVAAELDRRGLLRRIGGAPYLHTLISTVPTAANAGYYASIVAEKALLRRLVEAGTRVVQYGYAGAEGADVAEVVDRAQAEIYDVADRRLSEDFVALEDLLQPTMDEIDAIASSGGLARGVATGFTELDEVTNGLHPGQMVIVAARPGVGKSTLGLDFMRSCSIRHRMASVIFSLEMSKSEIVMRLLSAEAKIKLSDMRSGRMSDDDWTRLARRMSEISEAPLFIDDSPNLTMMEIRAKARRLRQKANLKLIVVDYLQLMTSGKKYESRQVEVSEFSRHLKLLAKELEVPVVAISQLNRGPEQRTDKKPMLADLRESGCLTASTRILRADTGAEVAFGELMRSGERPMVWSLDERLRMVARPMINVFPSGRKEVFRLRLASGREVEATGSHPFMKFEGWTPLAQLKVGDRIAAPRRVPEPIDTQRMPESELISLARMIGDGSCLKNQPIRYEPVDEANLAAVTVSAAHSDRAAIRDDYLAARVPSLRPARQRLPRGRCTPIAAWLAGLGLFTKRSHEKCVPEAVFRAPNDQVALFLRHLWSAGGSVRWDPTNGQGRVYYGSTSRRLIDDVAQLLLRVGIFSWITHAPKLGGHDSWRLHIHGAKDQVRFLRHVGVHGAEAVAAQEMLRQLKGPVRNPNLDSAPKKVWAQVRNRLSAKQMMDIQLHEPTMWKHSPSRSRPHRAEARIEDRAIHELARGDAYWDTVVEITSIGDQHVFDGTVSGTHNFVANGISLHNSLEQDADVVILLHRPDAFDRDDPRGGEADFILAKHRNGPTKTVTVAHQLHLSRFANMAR

Chain of Beta-galactosidase (Q8VNN2 whole entry): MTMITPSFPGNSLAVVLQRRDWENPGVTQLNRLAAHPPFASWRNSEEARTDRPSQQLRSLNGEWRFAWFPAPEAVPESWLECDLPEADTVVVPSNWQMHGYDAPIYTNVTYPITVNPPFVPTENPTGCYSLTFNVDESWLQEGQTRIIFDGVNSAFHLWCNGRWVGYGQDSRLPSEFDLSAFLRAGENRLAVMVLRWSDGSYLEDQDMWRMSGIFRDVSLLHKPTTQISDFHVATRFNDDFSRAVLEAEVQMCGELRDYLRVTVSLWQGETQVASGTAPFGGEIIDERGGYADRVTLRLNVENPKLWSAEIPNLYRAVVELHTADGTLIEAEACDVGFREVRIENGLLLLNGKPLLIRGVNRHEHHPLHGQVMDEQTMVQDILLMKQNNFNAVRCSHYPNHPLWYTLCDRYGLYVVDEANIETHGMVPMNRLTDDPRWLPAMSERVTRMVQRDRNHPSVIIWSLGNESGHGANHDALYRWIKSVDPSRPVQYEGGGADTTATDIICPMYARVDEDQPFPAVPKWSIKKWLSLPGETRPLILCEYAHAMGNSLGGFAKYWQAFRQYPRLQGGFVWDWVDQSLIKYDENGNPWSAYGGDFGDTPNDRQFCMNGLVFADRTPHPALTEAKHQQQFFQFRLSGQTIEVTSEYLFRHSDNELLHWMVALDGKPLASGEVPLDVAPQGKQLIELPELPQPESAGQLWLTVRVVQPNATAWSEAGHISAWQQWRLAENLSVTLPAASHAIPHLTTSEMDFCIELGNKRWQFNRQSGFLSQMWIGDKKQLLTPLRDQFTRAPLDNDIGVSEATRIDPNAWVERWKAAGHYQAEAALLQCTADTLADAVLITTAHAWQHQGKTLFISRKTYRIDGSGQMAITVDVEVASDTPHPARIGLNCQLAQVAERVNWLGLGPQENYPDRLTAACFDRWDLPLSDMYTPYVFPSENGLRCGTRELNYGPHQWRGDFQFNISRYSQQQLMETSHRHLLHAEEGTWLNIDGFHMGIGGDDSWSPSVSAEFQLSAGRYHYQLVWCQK

O=C1C(Nc2ccccc2)=C/C(=N/S(=O)(=O)c2cccs2)c2ccccc21
EC50 [1]: 2.66 µM (inconclusive)
EC50 [2]: 2.81 µM (active)
EC50 [3]: 1.14 µM (active)
EC50 [4]: 4.13 µM (active)
EC50 [5]: 4.63 µM (active)
EC50 (Streptococcus): 4.21 µM (active)
IC50 (Beta-galactosidase): > 66.6 µM (inactive)
IC50 (cells): 14.2 µM (active)
AC50 [6]: 0.187 µM (active)
